The values below come from US20250099407A1, “2-AMINO BENZOPHENONE DERIVATIVES FOR TARGETED FERROPTOSIS INDUCTION IN CANCER THERAPY” (INDIAN INSTITUTE OF TECHNOLOGY KANPUR, priority 2023, published 2025).

SMILES strings stand for the structures.

The assay concerns 4T1 cells. Nature of the assay: Combination cell viability experiments in 4T1 cells. The format is cell-based. The following applies: 4T1, Ferrostain-1 10 μM. The procedure: FIG. 14 depicts a combination experiment indicates the involvement of thiol modulation by IITK3001/IITK3002 on the viability of Huh-7 and 4T1 cells, in accordance with an embodiment of the present invention. The viability of screened cancer cells was recorded using a luminescence-based CellTiter-Glo® assay for the ATP quantification. The screening concentration of (a) IITK3001 and (b) IITK3002 ranged from 10 uM to 4.5 nM with an 8-point-3-fold dilution series in DMEM medium (>0.1% DMSO as control). For combination experiments, 500 μM of NAC or glutathione and 25 μM of BSO were used. Each experiment was conducted in more than two biological replicates with three technical replicates. The error bar is a representation of standard deviation among the technical replicates.
FIG. 17 depicts IITK3001-mediated ferroptosis induction as a cell death mechanism in 4T1 cells is recorded, in accordance with an embodiment of the present invention. The screening concentration of (a) IITK3001 and (b) IITK3002 ranged from 10 μM to 4.5 nM with an 8-point-3-fold dilution series. […]
FIG. 19 depicts IITK3001-mediated ferroptosis induction as a cell death mechanism in 4T1 cells is recorded, in accordance with an embodiment of the present invention. […]

As to `CN(C(=O)CCl)c1ccccc1C(=O)c1ccccc1` [IITK3001, N-(2-benzoylphenyl)-2-chloro-N-methylacetamide], the “effect of Fer-1 combination in 4T1 cells” value is given as “negligible”.
